Measured values: paper PMC8478281, “Targeting the FtsZ Allosteric Binding Site with a Novel Fluorescence Polarization Screen, Cytological and Structural Approaches for Antibacterial Discovery” (Journal of Medicinal Chemistry, 2021)
In brackets after ≈: the same amount, converted by molar mass.

How the values were obtained:
[1] = molecular target: T1, stabilized polymers of FtsZ from B. subtilis (Bacillus subtilis, UniProt P17865); assay: Competition assay: displacement of probe (R)-5 from stabilized BsFtsZ-GMPCPP polymers; type: binding; details: for Kd: stabilized polymers of FtsZ from B. subtilis, probe (R)-5, mean ± SEM, read-out: KD
T1 construct: made in house
Description: (§1) FtsZ (10–15 μM) was assembled in HEPES buffer, 10 mM MgCl2, 50 μM GMPCPP at 25 °C for 10 min, and then 0.15% (v/v) glutaraldehyde[36] (distilled grade for microscopy, TAAB Laboratories, U.K.) was added to the solution that was incubated at 25 °C for 10 min more. (This was the minimal glutaraldehyde concentration determined to stabilize FtsZ polymers specifically binding probe 1.) The remains of the cross-linking agent were quenched by adding 60 mM NaBH4, the sample was incubated on ice for 10 min and degassed.[36] Cross-linked polymers were centrifuged for 10 min at 8200g (5000 rpm) and 4 °C in 15 mL Falcon tubes employing a Rotina 380R (Hettich) centrifuge, the supernatant was removed and the pellet was resuspended in the same volume of HEPES buffer, 10 mM MgCl2, containing 5 μM GMPCPP. Fixed FtsZ polymers were active in binding assays after more than 2 days at 4 °C; they could also be frozen in liquid nitrogen with a small loss of binding capacity. […] Cross-linked polymers of SaFtsZ were similarly prepared.
(§2) Competition assays were performed by measuring, through the decrease in fluorescence anisotropy, the displacement of the fluorescent probes from stabilized FtsZ polymers. Increasing concentrations of competing ligands were added to the mixtures of cross-linked FtsZ polymers (10–15 μM) with probe 1 (3 μM), 7–8 μM FtsZ polymers with probe (S)-2 (3 μM), or 2–3 μM FtsZ polymers with (R)-5 (3 μM). HEPES buffer with 10 mM MgCl2 and 0.1 mM GMPCPP was employed, with a final volume of 0.5 mL, and the anisotropy measured at 25 °C. Under these conditions, the initial fraction of the probe bound was between 0.4 and 0.5. The fraction of the probe bound (Vb) was calculated [drawing 1] where rfree and rmax are the anisotropy values of the free and bound probes, respectively, and R is the ratio between the fluorescence intensities of the bound and free probe (Table S1). The binding data were plotted against the competing ligand concentration and fitted by competition equilibrium of the ligand and the probe for the same binding site. The resulting system of equations[50] was numerically solved using the Equigra v. 5.0 program,[33] which provided the best-fitted value of the competitor binding constant.

[2] = molecular target: T2, stabilized SaFtsZ polymers (Staphylococcus aureus, UniProt P0A031); assay: Competition assay with stabilized SaFtsZ polymers; type: binding; details: read-out: KD (in parenthesis) (converted)
T2 construct: Full-length S. aureus FtsZ (SaFtsZ); made in house
Description: Full-length S. aureus FtsZ (SaFtsZ) and the truncated protein SaFtsZ(12–315) were purified as described.[34] SaFtsZ was assembled in 50 mM MES, 50 mM KCl, 1 mM EDTA, pH 6.5 plus 10 mM MgCl2, and 0.1 mM GMPCPP.
as §1, §2

B. subtilis [3] = assay: Minimal division inhibitory concentration and cell division phenotype, B. subtilis; type: cell-based, Bacillus subtilis; details: Bacillus subtilis, read-out: MDC B. subtilis
Description: (§3) B. subtilis 168 and Staphylococcus spp. were grown in cation adjusted Mueller–Hinton broth (CAMHB; Becton, Dickinson and Company) at 37 °C. B. subtilis SU570 were grown in the same medium at 30 °C. In all cases, the cells were grown to an absorbance of 0.1–0.2 at 600 nm and then incubated either with the compounds or DMSO vehicle. Microscopy assays and cell measurement were performed as previously described.[31] MIC values were determined by a broth macrodilution method.[51] MBC values were determined as the lowest concentration of inhibitor at which there was a 99.9% reduction in colony-forming units/mL compared to the inoculum. To construct a S. aureus strain expressing FtsZ-mCherry, the plasmid pCN-ftsZmch[9] was electroporated into RN4220 and 0.1 μM cadmium chloride (Sigma-Aldrich) was used to induce the expression of the construct under the control of the Pcad promoter.

S. aureus Mu50 [4] = assay: Minimal division inhibitory concentration, S. aureus Mu50; type: cell-based; details: Staphylococcus aureus, MU50, read-out: MDC S. aureus Mu50
Description: as §3

B. subtilis [5] = assay: Minimal growth inhibitory concentration (broth macrodilution), B. subtilis; type: cell-based, Bacillus subtilis; details: Bacillus subtilis, read-out: MIC B. subtilis
Description: as §3

S. aureus Mu50 [6] = assay: Minimal growth inhibitory concentration (broth macrodilution), S. aureus Mu50; type: cell-based, Staphylococcus aureus; details: Staphylococcus aureus, MU50, read-out: MIC S. aureus Mu50
Description: as §3

[7] = tested on: S. aureus subsp. aureus (ATCC 25923); assay: Minimal growth inhibitory concentration, S. aureus subsp. aureus; type: cell-based; details: Staphylococcus aureus, ATCC25923
Description: as §3

[8] = tested on: Staphylococcus haemolyticus; assay: Minimal growth inhibitory concentration, S. haemolyticus; type: cell-based
Description: as §3

[9] = tested on: Staphylococcus epidermidis; assay: Minimal growth inhibitory concentration, S. epidermidis; type: cell-based
Description: as §3

S. aureus = assay: Minimal bactericidal concentration; type: cell-based; details: Staphylococcus aureus; 99.9% reduction in colony-forming units/mL
Description: as §3

MTT cytotoxicity assay = type: cell-based; details: human, IMR90 lung fibroblast cells, relative to vehicle; for viability at 100 µM: IMR90, 100 µM
Description: The sensitivity of the IMR90 cell line to compounds was tested through a standard 3-(4,5-dimethylthiazol-2-yl)-2,5-diphenyltetrazolium bromide (MTT) assay.[52] The results were reported as the viability percentage of the tested compound relative to vehicle (DMSO), obtained from two or three independent experiments performed in triplicate.

[10] = Solubility in HEPES buffer with 2% DMSO, spectrophotometric; type: physicochemical; details: HEPES buffer containing 2% DMSO, 25 °C, aqueous buffer, kinetic from dmso stock; HEPES buffer pH 6.8 containing 2% DMSO
Description: 3.2. Solubility of Compounds. Stock solutions of compounds were prepared in
DMSO (spectroscopic grade, Merck) a nd stored at -20 °C. Compound solubility in 50
mM HEPES-KOH, 50 mM KCl, 1 mM EDTA, pH 6.8 (HEPES buffer) containing 2%
DMSO was determined spectrophotometrically, monitoring the linear correlation
between the absorbance and the compound concentration and the absence of light
scattering. The solutions were optionally centrifuged at 100000 rpm for 20 min at 25 °C
in a TLA100 rotor with a Beckman Optima Max -XP ultracentrifuge.

B. subtilis 168 = assay: Cell length of B. subtilis 168 incubated with FtsZ inhibitors; type: cell-based, Bacillus subtilis; set-up: unit of the concentration uncertain; unit not given here; details: B. subtilis 168, 3 h
Description: Figure 4 Fluorescence anisotropy screen for FtsZ allosteric inhibitors combined with cell-based methods. (A) Screen for FtsZ inhibitors employing the fluorescence anisotropy of probe (S)-2 (3 μM) and stabilized FtsZ-GMPCPP polymers (8 μM binding sites). […] Control values with the corresponding concentrations of dimethyl sulfoxide (DMSO) vehicle (2% void and gray circles; 4%, black circle) are also shown. […] Raw data plots (n ≥ 30) are shown with the mean values marked (statistics in Table S2). The cells were incubated for 3 h with each compound, and cell lengths were measured. (D) Representative phase-contrast images of cells after 3 h with 7 or 9 (0.75 mM each). (E) Cellular localization of FtsZ-GFP in B. subtilis SU570 following growth for 1.5 h in the absence (inset) and presence of 7 (0.2 mM). Bars, 10 μm.
as §3, with “MBC values were determined as the lowest concentration of inhibitor at which there was a 99.9% reduction in colony-forming units/mL compared to the inoculum.” left out, “promoter. […]” for “promoter.”

[11] = molecular target: T3, stabilized FtsZ-GMPCPP polymers (BsFtsZ) (Bacillus subtilis, UniProt P17865); assay: Competition assay: displacement of probe (S)-2 from stabilized FtsZ-GMPCPP polymers; type: binding; details: KD, (S)-2 3 μM, 8 μM binding sites
T3 construct: made in house
Description: as §1, §2

T1 sequence (P17865 whole entry): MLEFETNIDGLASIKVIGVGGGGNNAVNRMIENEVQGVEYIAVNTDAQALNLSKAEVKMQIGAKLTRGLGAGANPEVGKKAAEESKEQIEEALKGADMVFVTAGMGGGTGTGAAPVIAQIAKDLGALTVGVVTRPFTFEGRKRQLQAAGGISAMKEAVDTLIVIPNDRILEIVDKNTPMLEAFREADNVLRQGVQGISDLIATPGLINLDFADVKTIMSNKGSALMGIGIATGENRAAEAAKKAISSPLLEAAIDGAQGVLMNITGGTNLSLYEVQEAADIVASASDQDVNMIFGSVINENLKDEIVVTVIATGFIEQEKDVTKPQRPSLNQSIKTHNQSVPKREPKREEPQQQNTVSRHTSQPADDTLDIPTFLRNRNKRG
T2 sequence (P0A031 whole entry): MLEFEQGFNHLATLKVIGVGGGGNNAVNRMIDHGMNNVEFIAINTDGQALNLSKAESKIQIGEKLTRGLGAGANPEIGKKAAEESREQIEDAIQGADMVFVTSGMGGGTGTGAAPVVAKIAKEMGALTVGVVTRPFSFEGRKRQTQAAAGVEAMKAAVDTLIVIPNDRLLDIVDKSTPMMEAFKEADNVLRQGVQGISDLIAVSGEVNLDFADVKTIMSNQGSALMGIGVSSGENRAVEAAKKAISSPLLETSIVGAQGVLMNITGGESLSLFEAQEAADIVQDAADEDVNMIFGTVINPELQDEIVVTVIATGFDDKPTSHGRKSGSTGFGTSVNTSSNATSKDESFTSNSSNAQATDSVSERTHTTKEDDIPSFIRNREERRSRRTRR
T3 sequence (P17865 whole entry): as the sequence (P17865 whole entry) above

Row | SMILES | Kd [1] | Kd [2] | minimal effective concentration (B. subtilis [3]) | minimal effective concentration (S. aureus Mu50 [4]) | MIC (B. subtilis [5]) | MIC (S. aureus Mu50 [6]) | MIC [7] | MIC [8] | MIC [9] | MBC (S. aureus) | viability at 25 µM (MTT cytotoxicity assay; IMR90, 25 µM) | solubility [10] | length (B. subtilis 168; 1 (unit uncertain) as printed) | viability at 100 µM (MTT cytotoxicity assay) | length (B. subtilis 168; 2.5 (unit uncertain) as printed) | length (B. subtilis 168; 5 (unit uncertain) as printed) | Kd [11] | viability at 50 µM (MTT cytotoxicity assay; IMR90, 50 µM) | fold weaker affinity and MDC than the (R)-enantiomer [1] | length (B. subtilis 168; 10 (unit uncertain) as printed)
1 | CCC[C@H](COc1ccc(F)c(C(N)=O)c1F)Nc1cccc(C(F)(F)F)c1 [(R)-26] | 200 ± 100 nM | < 100 nM | 1 µM | 10 µM | 2.5 µM (≈ 1.01 µg/mL) | 25 µM (≈ 10.1 µg/mL) | 25 µM (≈ 10.1 µg/mL) | 25 µM (≈ 10.1 µg/mL) | 25 µM (≈ 10.1 µg/mL) | 25 µM (≈ 10.1 µg/mL) | 100 ± 1% | 100 µM (≈ 40.2 µg/mL) | 17.6 ±0.8 |  |  |  |  |  |  | 
2 | NC(=O)c1c(F)ccc(OCCNc2cccc(C(F)(F)F)c2)c1F [Compound 25, 2,6-Difluoro-3-(2-{[3-(trifluoromethyl)phenyl]amino}ethoxy)benzamide] | 1900 ± 200 nM | 300 nM | 5 µM | 50 µM | 10 µM (≈ 3.6 µg/mL) | 100 µM (≈ 36 µg/mL) |  |  |  | 100 µM (≈ 36 µg/mL) |  | 100 µM (≈ 36 µg/mL) |  | 88 ± 1% | 4.8 ± 0.1 | 27.4 ±0.9 |  |  |  | 
3 | NC(=O)c1c(F)ccc(OCc2nc3cc(Cl)cnc3s2)c1F [PC190723, reference compound] | < 100 nM | < 100 nM | 2.5 µM | 1 µM | 5 µM (≈ 1.78 µg/mL) | 5 µM (≈ 1.78 µg/mL) |  |  |  | 5 µM (≈ 1.78 µg/mL) |  | 10 µM (≈ 3.56 µg/mL) |  |  |  |  | < 100 nM |  |  | 
4 | NC(=O)c1c(F)ccc(OCc2cccc(C(F)(F)F)c2)c1F [Compound 20, 2,6-Difluoro-3-{[3-(trifluoromethyl)benzyl]oxy}benzamide] | 700 ± 200 nM | 700 ± 200 nM | 10 µM | 50 µM | 25 µM (≈ 8.28 µg/mL) | 50 µM (≈ 16.6 µg/mL) | 25 µM (≈ 8.28 µg/mL) | 25 µM (≈ 8.28 µg/mL) | 25 µM (≈ 8.28 µg/mL) | 100 µM (≈ 33.1 µg/mL) |  | 50 µM (≈ 16.6 µg/mL) |  |  |  |  |  | 84 ± 5% |  | 
5 | CCC[C@@H](COc1ccc(F)c(C(N)=O)c1F)Nc1cccc(C(F)(F)F)c1 [(S)-26] | 3800 ± 200 nM | 7000 nM | > 10 µM | 100 µM | 50 µM (≈ 20.1 µg/mL) | 100 µM (≈ 40.2 µg/mL) |  |  |  |  |  | 100 µM (≈ 40.2 µg/mL) |  |  |  |  |  |  | 10–20 fold | 4.9 ± 0.2
6 | NC(=O)c1c(F)ccc(OCc2cccc(Cl)c2)c1F [Compound 18, 3-[(3-Chlorobenzyl)oxy]-2,6-difluorobenzamide] | 1300 ± 100 nM |  | 10 µM | 50 µM | 25 µM (≈ 7.44 µg/mL) | 100 µM (≈ 29.8 µg/mL) |  |  |  | 100 µM (≈ 29.8 µg/mL) |  | ≥ 100 µM |  | 90 ± 7% |  |  |  |  |  | 
7 | CCCC(COc1ccc(F)c(C(N)=O)c1F)Nc1cccc(C(F)(F)F)c1 (racemic) [rac-26, 2,6-Difluoro-3-[(2-{[3-(trifluoromethyl)phenyl]amino}pentyl)oxy]benzamide] | 1100 ± 100 nM |  | 2.5 µM | 25 µM | 5 µM (≈ 2.01 µg/mL) | 50 µM (≈ 20.1 µg/mL) | 100 µM (≈ 40.2 µg/mL) | 50 µM (≈ 20.1 µg/mL) | 50 µM (≈ 20.1 µg/mL) |  |  | 50 µM (≈ 20.1 µg/mL) |  |  |  |  |  |  |  | 
